From patent publication US20260174875A1 (Novo Nordisk A/S, priority 2023, published 2026)
Numbered stars: 1 amine (or outer) side, 2 acyl side, 3 side chain; on linkers, the order of the positions; unused ones are H or OH. Square brackets hold non-standard residues; d marks the D form. Side chains are listed from the residue outwards. * marks the point of attachment. C16 diacid = O=C(O)CCCCCCCCCCCCCCC(=O)*; γGlu = O=C(O)[C@H](CCC(=O)[*:2])N[*:1]; AEEA = NCCOCCOCC(=O)O; Aib = CC(C)(N)C(=O)O

What was measured:
[1] = molecular target: T1, human amylin receptor (hAMYR3) (Homo sapiens, UniProt O60896+P30988); assay: Amylin receptor assay, method B (CRE-luciferase reporter, BHK cells); assay type: cell-based
T1 construct: host or cells: BHK cells (Hollex-1 line expressing hCTR(a) and CRE-Luc), further transfected with human RAMP3
T1 sequence (P30988 25-474): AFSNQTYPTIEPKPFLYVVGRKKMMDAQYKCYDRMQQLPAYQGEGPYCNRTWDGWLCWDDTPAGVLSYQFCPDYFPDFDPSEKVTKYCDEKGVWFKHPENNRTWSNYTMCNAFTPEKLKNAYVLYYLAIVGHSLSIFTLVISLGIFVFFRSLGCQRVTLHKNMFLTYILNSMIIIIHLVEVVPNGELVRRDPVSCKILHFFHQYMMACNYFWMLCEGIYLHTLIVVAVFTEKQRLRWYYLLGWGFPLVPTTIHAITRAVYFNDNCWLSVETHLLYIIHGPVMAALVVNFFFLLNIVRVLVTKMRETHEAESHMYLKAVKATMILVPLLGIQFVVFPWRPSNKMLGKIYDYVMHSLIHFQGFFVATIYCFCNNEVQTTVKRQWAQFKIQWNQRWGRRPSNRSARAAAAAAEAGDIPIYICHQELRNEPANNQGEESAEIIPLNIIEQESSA
T1 sequence (O60896 24-148): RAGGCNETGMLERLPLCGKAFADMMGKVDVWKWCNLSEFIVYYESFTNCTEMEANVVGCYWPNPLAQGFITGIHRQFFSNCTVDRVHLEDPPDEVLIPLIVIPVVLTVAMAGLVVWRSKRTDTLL
In short: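 BHK cells with CRE-luciferase, co-expressing hAMYR3 and transfected with human RAMP3, seeded overnight, then exposed 3 h at 37 °C to compound. Buffer: phenol red-free DMEM, 10 mM HEPES, 1% ovalbumin, with 0% or 1% (w/v) HSA. Luminescence read after 30 min with steadylite Plus.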

[2] = molecular target: T2, human GIP receptor (hGIPR) (Homo sapiens, UniProt P48546); assay: GIP receptor assay, method B (CRE-luciferase reporter, BHK cells, 384-well); assay type: cell-based
T2 construct: expressed in transfected cells
T2 sequence (P48546 22-466): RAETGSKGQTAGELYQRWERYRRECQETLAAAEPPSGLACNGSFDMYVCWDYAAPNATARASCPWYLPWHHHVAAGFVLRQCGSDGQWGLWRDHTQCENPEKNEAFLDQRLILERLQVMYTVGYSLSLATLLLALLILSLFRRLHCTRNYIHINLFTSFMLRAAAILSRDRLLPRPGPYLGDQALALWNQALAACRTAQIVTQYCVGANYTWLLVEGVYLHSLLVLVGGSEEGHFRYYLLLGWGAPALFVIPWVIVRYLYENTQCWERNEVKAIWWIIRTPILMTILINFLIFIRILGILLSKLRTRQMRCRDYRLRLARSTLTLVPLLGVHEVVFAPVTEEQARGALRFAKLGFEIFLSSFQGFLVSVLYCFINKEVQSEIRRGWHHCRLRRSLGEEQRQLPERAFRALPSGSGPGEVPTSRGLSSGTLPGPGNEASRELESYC
Procedure: (§1) To assess how the activation of the receptors is potentially influenced by the presence of human serum albumin (HSA), the in vitro assays were performed in the absence of HSA and presence of 1% (w/v) HSA.
Activation of the human GIP receptor leads to increased intra-cellular concentrations of cyclic AMP (cAMP) and the consequent transcription activation from promoters containing multiple copies of the cAMP response element (CRE). It is thus possible to measure GIP receptor activity using a CRE-luciferase reporter gene introduced into Baby Hamster Kidney (BHK) cells co-expressing the human GIP receptor.
Cells at about 80-90% confluency were washed once with PBS (Gibco 14190-094) and detached from the cell flasks with Versene (Gibco, 15040-066). After centrifugation, the cells were counted, resuspended and diluted to approximately 1.5-3.0×10^6 (1.5E+6 to 3.0E+6) cells/mL in Recovery Cell Culture Freezing Medium (Gibco, 12648-010) and stored at −180° C. in suitable aliquots until use.
(§2) The assay buffer consisted of DMEM without phenol red (Gibco, 11880-028) supplemented with 1× GlutaMAX (Gibco, 35050-038), 10 mM HEPES (Gibco, 15630-056), 1% (w/v) ovalbumin (Sigma, A5503) and 0.1% (v/v) Pluronic F-68 (Gibco, 24040-032) either with HSA or without HSA (Sigma, A9511).
Serial dilutions were transferred to a 384-well assay plate (PerkinElmer/Revvity, 6007688) and mixed with an equal volume (10 μL) of assay buffer without or with 3% HSA (Sigma, A-9511). Frozen stocks of hGIPR BHK Cre-Luc cells were thawed in a 37° C. water bath, washed once in PBS (Gibco 14190-094), diluted to 1.5×10^5 (1.5E+5) cells/mL in assay buffer (without HSA) and added (10 μL) to each well of the 384-well assay plate. After a short centrifugation, the assay plates were incubated for 3 hours at 37° C. in 5% CO2 and let to equilibrated at room temperature for 10 minutes before the addition of 30 μL steadylite Plus™ (PerkinElmer/Revvity, 6066759) per well. Plates were sealed and incubated at room temperature with gentle shaking for 30 minutes while protected from light. Luminescence was detected on a luminescence plate reader e.g. a Synergy 2 (BioTek).

[3] = system: Male Sprague Dawley (SD) rats; assay: Efficacy testing on appetite: acute food intake in ad libitum fed normal weight rats; assay type: in vivo, rat; details: single dose 10 nmol/kg
Source text: Male Sprague Dawley (SD) rats from Taconic, Denmark were used for the acute food intake experiments, wherein the principles of laboratory animal care were followed.
The rats arrived at least 10-14 days before the start of the experiment to allow acclimatization to experimental settings. During this period, the animals were handled (fixation by restrain in neck skin) at least 2 times. Immediately upon arrival, rats were changed to a reversed light cycle (dark from 11 am-11 pm) and were transferred to an automated food intake measuring system (HM2 system, MBRose; Faaborg, Denmark). […] To enable recording of individual food intake, rats were ID chipped. Three rats were housed in each cage. During the acclimatization period, in which the rats get used to the new light cycle and diet (LF 10% (D12450B), from Research Diets Inc.), the animals had free access to food and water. Since rats are normally active and consume most of their daily calories during the dark period, rats were dosed in the morning right before lights were turned off. Such a set-up results in the lowest data variation and highest test sensitivity. […] In each cage there were animals from three different treatment groups (to eliminate potential cage effects (e.g. cage malfunction) on primary readout: food intake). The rats were dosed once subcutaneously (s.c.) with the peptide of interest according to body weight (10 or 30 nmol/kg) in vehicle (0.5 ml/kg) using a NovoPen® (Novo Nordisk, Bagsvæed, Denmark).
The compounds of the invention were formulated (20 or 60 nmol/ml) in the following vehicle: 8 mM phosphate; 250 mM glycerol; 0.007% polysorbate 20, pH 7.4.
After dosing, the rats were returned to their home cages, where they continued to have ad libitum access to chow and water. The food consumption was recorded individually and continuously by the HM2 system from 0-72 h after test compound administration. Data obtained by the HM-2 system were stored in a HMBase SQL database (Firebird® relational database management system) and were processed by HM2Lab software (MBRose; Faaborg, Denmark) installed in an embedded computer. The feeding system is a highly sensitive system with a load resolution of 0.001 g.

[4] = molecular target: T3, human GLP-1 receptor (hGLP-1R) (Homo sapiens, UniProt P43220); assay: GLP-1 receptor assay, method B (CRE-luciferase reporter, BHK cells, 384-well); assay type: cell-based
T3 construct: expressed in transfected cells
T3 sequence (P43220 24-463): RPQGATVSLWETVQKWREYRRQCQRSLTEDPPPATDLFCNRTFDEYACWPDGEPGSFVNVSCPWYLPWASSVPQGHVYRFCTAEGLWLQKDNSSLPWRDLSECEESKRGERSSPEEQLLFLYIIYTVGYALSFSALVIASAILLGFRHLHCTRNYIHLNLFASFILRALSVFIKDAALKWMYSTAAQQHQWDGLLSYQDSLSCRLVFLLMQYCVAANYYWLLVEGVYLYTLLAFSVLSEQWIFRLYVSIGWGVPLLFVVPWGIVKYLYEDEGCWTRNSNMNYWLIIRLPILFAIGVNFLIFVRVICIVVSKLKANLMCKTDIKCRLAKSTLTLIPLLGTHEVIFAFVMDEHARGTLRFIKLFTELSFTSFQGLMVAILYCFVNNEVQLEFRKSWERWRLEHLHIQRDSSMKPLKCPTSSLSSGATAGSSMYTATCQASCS
Procedure: as §1
Cells at approximately 80-90% confluence were washed once in PBS (Gibco 14190-094) and loosened from the cell flasks with Versene (Gibco, 15040-033). […] Cells were aliquoted and stored at −180° C. until use.
as §2
Serial dilutions were transferred to a 384-well assay plate (PerkinElmer/Revvity, 6007688) and mixed with an equal volume (10 μL) of assay buffer without or with 3% (w/v) HSA (Sigma, A-9511). Frozen stocks of hGLP-1R BHK Cre-Luc cells were thawed in a 37° C. water bath, washed once in PBS (Gibco 14190-094), diluted to 1.5×10^5 (1.5E+5) cells/mL in assay buffer (without HSA) and added (10 μL) to each well of the 384-well assay plate. After a short centrifugation, the assay plates were incubated for 3 hours at 37° C. in 5% CO2 and let to equilibrated at room temperature for 10 minutes before the addition of 30 μL steadylite Plus™ PerkinElmer/Revvity, 6066759) per well. Plates were sealed and incubated at room temperature with gentle shaking for 30 minutes while protected from light. Luminescence was detected on a luminescence plate reader e.g. a Synergy 2 (BioTek).

[5] = Chemical stability assessment in formulation (UPLC-UV-MS purity loss at 37° C.); assay type: physicochemical; details: 8 mM phosphate buffer pH 7.4, 1 mg/mL, 2 weeks
In short: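 Peptides at target 1 mg/mL in 8 mM phosphate buffer, pH adjusted to 7.4, incubated in capped vials at 37° C. and sampled over 2 weeks, frozen until analysis. Purity followed by UPLC-UV-MS with a 0.1% formic acid water/acetonitrile gradient.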

[6] = molecular target: T2, human GIP receptor (hGIPR); assay: GIP receptor assay, method A (CRE-luciferase reporter, BHK cells); assay type: cell-based; details: method A, absence of HSA; read-out: hGIPR Potency, no HSA, EC50
In short: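 Receptor activation was read as luciferase luminescence in hGIPR-expressing BHK CRE-Luc cells after 3 h compound exposure at 37 °C. Titrations (10-fold, 7 points, duplicate) ran in buffer containing 1% ovalbumin, with 1% HSA final or without; EC50 in pM fitted by four-parameter logistic model, Hill slope shared.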

[7] = molecular target: T1, human amylin receptor (hAMYR3); assay: Amylin receptor assay, method A (CRE-luciferase reporter, BHK cells); assay type: cell-based; details: method A, absence of HSA; read-out: hAMYR3 Potency, no HSA, EC50
[8] = molecular target: T3, human GLP-1 receptor (hGLP-1R); assay: GLP-1 receptor assay, method A (CRE-luciferase reporter, BHK cells); assay type: cell-based; details: method A, absence of HSA; read-out: hGLP-1R Potency, no HSA, EC50
In short: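 hGLP-1R BHK CRE-Luc cells, thawed, in DMEM (no phenol red)/10 mM HEPES/1% ovalbumin/0.1% Pluronic F-68 ± 1% (w/v) HSA; 3 h, 37° C, 5% CO2; steadylite Plus, 30 min RT, luminescence.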

[9] = hAMYR3 Potency, 1% HSA, EC50, methods B, in the presence of 1% HSA
[10] = method B, absence of HSA, read-out: hAMYR3 Potency, no HSA, EC50
[11] = hGIPR Potency, 1% HSA, EC50, methods B, in the presence of 1% HSA
[12] = method B, absence of HSA, read-out: hGIPR Potency, no HSA, EC50
[13] = hGLP-1R Potency, 1% HSA, EC50, methods B, in the presence of 1% HSA
[14] = method B, absence of HSA, read-out: hGLP-1R Potency, no HSA, EC50

EC50 [1, 9] [nM]	EC50 [1, 10] [nM]	EC50 [2, 11] [nM]	EC50 [2, 12] [nM]	EC50 [4, 13] [nM]	EC50 [4, 14] [nM]	Purity loss per week at 37° C. [5] [%]	EC50 [6] [nM]	EC50 [7] [nM]	EC50 [8] [nM]	Molecule	Food intake (relative to vehicle) Day 1 ([3]; day 1 [0-24 hours]) [%]	Food intake (relative to vehicle) Day 2 ([3]; day 2 [24-48 hours]) [%]	Food intake (relative to vehicle) Day 3 ([3]; day 3 [48-72 hours]) [%]
0.798	0.0112	0.0238	0.00366	0.178	0.0299					CC[C@H](C)[C@H](NC(=O)[C@H](CCC(=O)O)NC(=O)[C@H](CCC(=O)O)NC(=O)[C@H](CC(C)C)NC(=O)[C@H](CC(C)C)NC(=O)[C@@H](NC(=O)[C@H](CO)NC(=O)[C@H](Cc1ccc(O)cc1)NC(=O)[C@H](CC(=O)O)NC(=O)[C@H](CO)NC(=O)[C@@H](NC(=O)[C@H](Cc1ccccc1)NC(=O)[C@@H](NC(=O)CNC(=O)[C@H](CCC(=O)O)NC(=O)C(C)(C)NC(=O)[C@@H](N)Cc1ccc(O)cc1)[C@@H](C)O)[C@@H](C)O)[C@@H](C)CC)C(=O)N[C@@H](C)C(=O)N[C@@H](C)C(=O)N[C@@H](CCCNC(=N)N)C(=O)N[C@@H](CCC(=O)O)C(=O)N[C@@H](Cc1ccccc1)C(=O)N[C@H](C(=O)N[C@@H](CCC(=O)O)C(=O)N[C@@H](Cc1c[nH]c2ccccc12)C(=O)N[C@@H](CC(C)C)C(=O)N[C@@H](CC(C)C)C(=O)N[C@@H](C)C(=O)NCC(=O)NCC(=O)N1CCC[C@H]1C(=O)N[C@@H](CO)C(=O)N[C@@H](CO)C(=O)NCC(=O)N[C@@H](C)C(=O)NCC(=O)N[C@@H](C)C(=O)N[C@@H](CO)C(=O)N[C@@H](CCC(=O)O)C(=O)N[C@@H](CC(C)C)C(=O)N[C@@H](CO)C(=O)N[C@H](C(=O)N[C@@H](C)C(=O)N[C@@H](CCC(N)=O)C(=O)N[C@H](C(=O)N[C@@H](CCC(N)=O)C(=O)N[C@@H](CCCNC(=N)N)C(=O)N[C@@H](CC(C)C)C(=O)N[C@@H](CO)C(=O)N[C@@H](C)C(=O)N[C@@H](CCC(=O)O)C(=O)N[C@@H](CC(C)C)C(=O)N[C@@H](Cc1c[nH]cn1)C(=O)N[C@@H](CCCCNC(=O)COCCOCCNC(=O)COCCOCCNC(=O)CC[C@H](NC(=O)CCCCCCCCCCCCCCCCCCC(=O)O)C(=O)O)C(=O)N[C@@H](CC(C)C)C(=O)N[C@@H](C)C(=O)N[C@H](C(=O)N[C@@H](CC(C)C)C(=O)N1CCC[C@H]1C(=O)N[C@@H](CCCNC(=N)N)C(=O)N[C@H](C(=O)N[C@@H](CCC(=O)O)C(=O)N[C@H](C(=O)NCC(=O)N[C@@H](CO)C(=O)NCC(=O)N[C@@H](CO)C(=O)N1CCC[C@H]1C(N)=O)[C@@H](C)O)[C@@H](C)O)[C@@H](C)O)[C@@H](C)O)[C@@H](C)O)[C@@H](C)CC [Compound 176]	−12	2	7
0.537	0.0094	0.00764	0.00239	0.0888	0.0251	1.0				CC[C@H](C)[C@H](NC(=O)[C@H](CCC(=O)O)NC(=O)[C@H](CCC(=O)O)NC(=O)[C@H](CC(C)C)NC(=O)[C@H](CC(C)C)NC(=O)[C@@H](NC(=O)[C@H](CO)NC(=O)[C@H](Cc1ccc(O)cc1)NC(=O)[C@H](CC(=O)O)NC(=O)[C@H](CO)NC(=O)[C@@H](NC(=O)[C@H](Cc1ccccc1)NC(=O)[C@@H](NC(=O)CNC(=O)[C@H](CCC(=O)O)NC(=O)C(C)(C)NC(=O)[C@@H](N)Cc1ccc(O)cc1)[C@@H](C)O)[C@@H](C)O)[C@@H](C)CC)C(=O)N[C@@H](C)C(=O)N[C@@H](C)C(=O)N[C@@H](CCCNC(=N)N)C(=O)N[C@@H](CCC(=O)O)C(=O)N[C@@H](Cc1ccccc1)C(=O)N[C@H](C(=O)N[C@@H](CCC(=O)O)C(=O)N[C@@H](Cc1c[nH]c2ccccc12)C(=O)N[C@@H](CC(C)C)C(=O)N[C@@H](CC(C)C)C(=O)N[C@@H](C)C(=O)NCC(=O)NCC(=O)N1CCC[C@H]1C(=O)N[C@@H](CO)C(=O)N[C@@H](CO)C(=O)N[C@@H](CCC(=O)O)C(=O)N[C@@H](C)C(=O)NCC(=O)N[C@@H](CCC(N)=O)C(=O)N[C@@H](C)C(=O)N1CCC[C@H]1C(=O)NCC(=O)N[C@@H](CCC(N)=O)C(=O)N[C@@H](C)C(=O)N1CCC[C@H]1C(=O)NCC(=O)N[C@@H](C)C(=O)N[C@@H](CO)C(=O)N[C@@H](Cc1c[nH]cn1)C(=O)N[C@@H](CC(C)C)C(=O)N[C@@H](CO)C(=O)N[C@H](C(=O)N[C@@H](C)C(=O)N[C@@H](CCC(N)=O)C(=O)N[C@H](C(=O)N[C@@H](CCC(N)=O)C(=O)N[C@@H](CCCNC(=N)N)C(=O)N[C@@H](CC(C)C)C(=O)N[C@@H](CO)C(=O)N[C@@H](C)C(=O)N[C@@H](CCC(=O)O)C(=O)N[C@@H](CC(C)C)C(=O)N[C@@H](Cc1c[nH]cn1)C(=O)N[C@@H](CCCCNC(=O)COCCOCCNC(=O)COCCOCCNC(=O)CC[C@H](NC(=O)CCCCCCCCCCCCCCCCCCC(=O)O)C(=O)O)C(=O)N[C@@H](CC(C)C)C(=O)N[C@@H](C)C(=O)N[C@H](C(=O)N[C@@H](CCC(=O)O)C(=O)N1CCC[C@H]1C(=O)N[C@@H](CCCNC(=N)N)C(=O)N[C@H](C(=O)N[C@@H](CCC(=O)O)C(=O)N[C@H](C(=O)NCC(=O)N[C@@H](CO)C(=O)NCC(=O)N[C@@H](CO)C(=O)N1CCC[C@H]1C(N)=O)[C@@H](C)O)[C@@H](C)O)[C@@H](C)O)[C@@H](C)O)[C@@H](C)O)[C@@H](C)CC [Compound 165]			
1.3		0.0201		0.135			0.00725	0.00393	0.0528	Y[Aib]EGTFTSDYSILLEEQAAREFIEWLLAGGPSK([AEEA-AEEA-γGlu-C16 diacid])GEASELSTAALGRLSAELHRLATLPRTETGSGSP-NH2 [Compound 18]			
